From patent EP2955182A1, “Pyridazinones for the treatment of cancer” (Max-Planck-Gesellschaft zur Förderung der Wissenschaften …, priority 2014, dated 2015)
Where two headings read alike, the source gives them in different places.

Target: PDEδ (Homo sapiens, UniProt O43924)
Assay: Fluorescence polarization competition binding assay (displacement titration of labeled Atorvastatin-probe)
Text: Example C.2: Displacement titrations of labeled Atorvastatin-probe for the determination of KD values:
Table 3. KD values for compounds of general formula (I) as determined by means of fluorescence polarization assay

[1] = fluorescence polarization assay, displacement of fluorescent-tagged Atorvastatin analog from PDEδ, read-out: KD

Kd [1]	Compound	also measured
> 1000 nM	COc1ccc(OC)c(-c2noc(CCCn3c(C)c4cnn(-c5ccccc5)c(=O)c4c3C)n2)c1 [Compound 19, 6-(3-(3-(2,5-dimethoxyphenyl)-1,2,4-oxadiazol-5-yl)propyl)-5,7-dimethyl-2-phenyl-2,6-dihydro-1H-pyrrolo[3,4-d]pyridazin-1-one]	
> 1000 nM	Cc1ccc(-c2noc(CCCn3c(C)c4cnn(-c5ccccc5)c(=O)c4c3C)n2)cc1 [Compound 17, 5,7-dimethyl-2-phenyl-6-(3-(3-(p-tolyl)-1,2,4-oxadiazol-5-yl)propyl)-2,6-dihydro-1H-pyrrolo[3,4-d]pyridazin-1-one]	
< 30 nM	Cc1ccc(-n2nc3c(=O)n(CCCC(=O)NCCc4cccc(Cl)c4)nc(C)c3c2C)cc1 [Compound 49, N-(3-chlorophenethyl)-4-(3,4-dimethyl-7-oxo-2-(p-tolyl)-2H-pyrazolo[3,4-d]pyridazin-6(7H)-yl)butanamide]	
100 to 1000 nM	Cc1c2cnn(-c3ccccc3)c(=O)c2c(C)n1CCCc1nc(-c2ccc(F)cc2)no1 [Compound 21, 6-(3-(3-(4-fluorophenyl)-1,2,4-oxadiazol-5-yl)propyl)-5,7-dimethyl-2-phenyl-2,6-dihydro-1H-pyrrolo[3,4-d]pyridazin-1-one]	
> 1000 nM	Cc1c2cnn(-c3ccccc3)c(=O)c2c(C)n1CCCc1nnc(-c2ccncc2)o1 [Compound 28, 5,7-dimethyl-2-phenyl-6-(3-(5-(pyridin-4-yl)-1,3,4-oxadiazol-2-yl)propyl)-2,6-dihydro-1H-pyrrolo[3,4-d]pyridazin-1-one]	
30 to 100 nM	COc1ccccc1CNC(=O)CCCn1nc(C)c2c(C)n(-c3ccccc3)nc2c1=O [Compound 34, 4-(3,4-dimethyl-7-oxo-2-phenyl-2H-pyrazolo[3,4-d]pyridazin-6(7H)-yl)-N-(2-methoxybenzyl)butanamide]	
< 30 nM	Cc1ccc(-n2nc3c(=O)n(CCCC(=O)NC4CCCC4)nc(C)c3c2C)cc1 [Compound 52, N-cyclopentyl-4-(3,4-dimethyl-7-oxo-2-(p-tolyl)-2H-pyrazolo[3,4-d]pyridazin-6(7H)-yl)butanamide]	
> 1000 nM	COc1ccc(-c2nnc(CCCn3c(C)c4cnn(-c5ccccc5)c(=O)c4c3C)o2)cc1 [Compound 24, 6-(3-(5-(4-methoxyphenyl)-1,3,4-oxadiazol-2-yl)propyl)-5,7-dimethyl-2-phenyl-2,6-dihydro-1H-pyrrolo[3,4-d]pyridazin-1-one]	
100 to 1000 nM	Cc1ccc(-n2nc3c(=O)n(CCCC(=O)NCc4ccccn4)nc(C)c3c2C)cc1 [Compound 40, 4-(3,4-dimethyl-7-oxo-2-(p-tolyl)-2H-pyrazolo[3,4-d]pyridazin-6(7H)-yl)-N-(pyridin-2-ylmethyl)butanamide]	
< 30 nM	Cc1c2cnn(-c3ccccc3)c(=O)c2c(C)n1CCCC(=O)NC1CCCCC1C (stereo not drawn) [Compound 13, 4-(5,7-dimethyl-1-oxo-2-phenyl-1H-pyrrolo[3,4-d]pyridazin-6(2H)-yl)-N-(2-methylcyclohexyl)butanamide]	
30 to 100 nM	Cc1ccc(CNC(=O)CCCn2nc(C)c3c(C)n(-c4ccccc4)nc3c2=O)cc1 [Compound 35, 4-(3,4-dimethyl-7-oxo-2-phenyl-2H-pyrazolo[3,4-d]pyridazin-6(7H)-yl)-N-(4-methylbenzyl)butanamide]	
100 to 1000 nM	Cc1c2cnn(-c3ccccc3)c(=O)c2c(C)n1CCCC(=O)NC1CC1 [Compound 9, N-cyclopropyl-4-(5,7-dimethyl-1-oxo-2-phenyl-1H-pyrrolo[3,4-d]pyridazin-6(2H)-yl)butanamide]	
< 30 nM	Cc1ccc(-n2nc3c(=O)n(CCCC(=O)NCc4ccc(OC(C)C)cc4)nc(C)c3c2C)cc1 [Compound 45]	
< 30 nM	Cc1ccc(-n2nc3c(=O)n(CCCC(=O)NCCc4ccc(Cl)cc4)nc(C)c3c2C)cc1 [Compound 48, N-(4-chlorophenethyl)-4-(3,4-dimethyl-7-oxo-2-(p-tolyl)-2H-pyrazolo[3,4-d]pyridazin-6(7H)-yl)butanamide]	
100 to 1000 nM	Cc1c2cnn(-c3ccccc3)c(=O)c2c(C)n1CCCc1nnc(-c2ccc(C(F)(F)F)cc2)o1 [Compound 26, 5,7-dimethyl-2-phenyl-6-(3-(5-(4-(trifluoromethyl)phenyl)-1,3,4-oxadiazol-2-yl)propyl)-2,6-dihydro-1H-pyrrolo[3,4-d]pyridazin-1-one]	
> 1000 nM	COc1ccc(-c2noc(CCCn3c(C)c4cnn(-c5ccccc5)c(=O)c4c3C)n2)cc1 [Compound 18, 6-(3-(3-(4-methoxyphenyl)-1,2,4-oxadiazol-5-yl)propyl)-5,7-dimethyl-2-phenyl-2,6-dihydro-1H-pyrrolo[3,4-d]pyridazin-1-one]	
< 30 nM	Cc1nn(CCCC(=O)NCCc2ccccc2)c(=O)c2nn(-c3ccccc3)c(C)c12 [Compound 36, 4-(3,4-dimethyl-7-oxo-2-phenyl-2H-pyrazolo[3,4-d]pyridazin-6(7H)-yl)-N-phenethylbutanamide]	
30 to 100 nM	Cc1nn(CCCC(=O)NCc2ccccc2)c(=O)c2nn(-c3ccccc3)c(C)c12 [Compound 31, N-benzyl-4-(3,4-dimethyl-7-oxo-2-phenyl-2H-pyrazolo[3,4-d]pyridazin-6(7H)-yl)butanamide]	

The next lines start with the molecule.

Compound	Kd [1]	also measured
Cc1c(Cl)cccc1NC(=O)CCCn1nc(C)c2c(C)n(-c3ccccc3)nc2c1=O [Compound 29, N-(3-chloro-2-methylphenyl)-4-(3,4-dimethyl-7-oxo-2-phenyl-2H-pyrazolo[3,4-d]pyridazin-6(7H)-yl)butanamide]		Kd (fluorescence polarization assay, displacement of fluorescent-tagged Atorvastatin analog from PDEδ): < 30 nM
Cc1c2cnn(-c3ccccc3)c(=O)c2c(C)n1CCCC(=O)NCc1ccccc1Cl [Compound 4, N-(2-chlorobenzyl)-4-(5,7-dimethyl-1-oxo-2-phenyl-1H-pyrrolo[3,4-d]pyridazin-6(2H)-yl)butanamide]	< 30 nM	
Cc1ccc(-n2nc3c(=O)n(CCCC(=O)NCc4cccnc4)nc(C)c3c2C)cc1 [Compound 41, 4-(3,4-dimethyl-7-oxo-2-(p-tolyl)-2H-pyrazolo[3,4-d]pyridazin-6(7H)-yl)-N-(pyridin-3-ylmethyl)butanamide]	100 to 1000 nM	
Cc1c2cnn(-c3ccccc3)c(=O)c2c(C)n1CCCc1nc(-c2ccc(C(F)(F)F)cc2)no1 [Compound 20, 5,7-dimethyl-2-phenyl-6-(3-(3-(4-(trifluoromethyl)phenyl)-1,2,4-oxadiazol-5-yl)propyl)-2,6-dihydro-1H-pyrrolo[3,4-d]pyridazin-1-one]	> 1000 nM	
Cc1c2cnn(-c3ccccc3)c(=O)c2c(C)n1CCCC(=O)NCc1ccccc1 [Compound 1, N-benzyl-4-(5,7-dimethyl-1-oxo-2-phenyl-1H-pyrrolo[3,4-d]pyridazin-6(2H)-yl)butanamide]	30 to 100 nM	
Cc1ccc(-n2nc3c(=O)n(CCCC(=O)NCc4ccccc4)nc(C)c3c2C)cc1 [Compound 42]		Kd: < 30 nM
COc1ccc(CNC(=O)CCCn2nc(C)c3c(C)n(-c4ccccc4)nc3c2=O)cc1 [Compound 32, 4-(3,4-dimethyl-7-oxo-2-phenyl-2H-pyrazolo[3,4-d]pyridazin-6(7H)-yl)-N-(4-methoxybenzyl)butanamide]	30 to 100 nM	
Cc1ccc(CNC(=O)CCCn2nc(C)c3c(C)n(-c4ccc(C)cc4)nc3c2=O)cc1 [Compound 44, 4-(3,4-dimethyl-7-oxo-2-(p-tolyl)-2H-pyrazolo[3,4-d]pyridazin-6(7H)-yl)-N-(4-methylbenzyl)butanamide]	< 30 nM	
Cc1c2cnn(-c3ccccc3)c(=O)c2c(C)n1CCCC(=O)NCc1ccccn1 [Compound 8, 4-(5,7-dimethyl-1-oxo-2-phenyl-1H-pyrrolo[3,4-d]pyridazin-6(2H)-yl)-N-(pyridin-2-ylmethyl)butanamide]	100 to 1000 nM	
Cc1c2cnn(-c3ccccc3)c(=O)c2c(C)n1CCCc1nnc(-c2ccccc2)o1 [Compound 22, 5,7-dimethyl-2-phenyl-6-(3-(5-phenyl-1,3,4-oxadiazol-2-yl)propyl)-2,6-dihydro-1H-pyrrolo[3.4-d]pyridazin-1-one]	100 to 1000 nM	
Cc1c2cnn(-c3ccccc3)c(=O)c2c(C)n1CCCC(=O)NCc1ccc(Cl)cc1 [Compound 5, N-(4-chlorobenzyl)-4-(5,7-dimethyl-1-oxo-2-phenyl-1H-pyrrolo[3,4-d]pyridazin-6(2H)-yl)butanamide]	30 to 100 nM	
Cc1c2cnn(-c3ccccc3)c(=O)c2c(C)n1CCCC(=O)NC1CCCC1 [Compound 10, N-cyclopentyl-4-(5,7-dimethyl-1-oxo-2-phenyl-1H-pyrrolo[3,4-d]pyridazin-6(2H)-yl)butanamide]	30 to 100 nM	
Cc1c2cnn(-c3ccccc3)c(=O)c2c(C)n1CCCc1nc(-c2ccccc2)no1 [Compound 16, 5,7-dimethyl-2-phenyl-6-(3-(3-phenyl-1,2,4-oxadiazol-5-yl)propyl)-2,6-dihydro-1H-pyrrolo[3,4-d]pyridazin-1-one]	100 to 1000 nM	
Cc1ccc(CCNC(=O)CCCn2nc(C)c3c(C)n(-c4ccc(C)cc4)nc3c2=O)cc1 [Compound 47, 4-(3,4-dimethyl-7-oxo-2-(p-tolyl)-2H-pyrazolo[3,4-d]pyridazin-6(7H)-yl)-N-(4-methylphenethyl)butanamide]	< 30 nM	
Cc1c2cnn(-c3ccccc3)c(=O)c2c(C)n1CCCc1nc2ccccc2n1Cc1ccccc1 [Compound 15, 6-(3-(1-benzyl-1H-benzo[d]imidazol-2-yl)propyl)-5,7-dimethyl-2-phenyl-2,6-dihydro-1H-pyrrolo[3,4-d]pyridazin-1-one]	< 30 nM	
Cc1ccc(-c2nnc(CCCn3c(C)c4cnn(-c5ccccc5)c(=O)c4c3C)o2)cc1 [Compound 23, 5,7-dimethyl-2-phenyl-6-(3-(5-(p-tolyl)-1,3,4-oxadiazol-2-yl)propyl)-2,6-dihydro-1H-pyrrolo[3,4-d]pyridazin-1-one]	> 1000 nM	
Cc1c2cnn(-c3ccccc3)c(=O)c2c(C)n1CCCC(=O)NCc1cccc(Cl)c1 [Compound 3, N-(3-chlorobenzyl)-4-(5,7-dimethyl-1-oxo-2-phenyl-1H-pyrrolo[3,4-d]pyridazin-6(2H)-yl)butanamide]	30 to 100 nM	
COc1cccc(CNC(=O)CCCn2nc(C)c3c(C)n(-c4ccccc4)nc3c2=O)c1 [Compound 33, 4-(3,4-dimethyl-7-oxo-2-phenyl-2H-pyrazolo[3,4-d]pyridazin-6(7H)-yl)-N-(3-methoxybenzyl)butanamide]	30 to 100 nM	
